# Where “and” joins values, the source holds several entries; their conditions need not be identical. Equal values may be shown once.
# Assays:
# [1] = target: PIK3CG (human) (UniProt P48736); experiment: Assessment of PIK3CG Kinase Activity
# [2] = target: PIK3CA (human) (UniProt P42336); experiment: Assessment of PIK3CA Kinase Activity
# [3] = target: PIK3CG;PIK3CA (human) (UniProt P48736); experiment: Assessment of Antiproliferation Activity in MDA-MB-361 Cells
# [4] = target: PIK3CG;PIK3CA (human) (UniProt P48736); experiment: Assessment of Antiproliferation Activity in PC3-MM2 Cells; conditions: pc3mm2
# [5] = target: PIK3CG;PIK3CA (human) (UniProt P48736); experiment: Assessment of Antiproliferation Activity in LNCaP Cells
# PIK3CA (human), sequence (P42336 whole entry, looked up): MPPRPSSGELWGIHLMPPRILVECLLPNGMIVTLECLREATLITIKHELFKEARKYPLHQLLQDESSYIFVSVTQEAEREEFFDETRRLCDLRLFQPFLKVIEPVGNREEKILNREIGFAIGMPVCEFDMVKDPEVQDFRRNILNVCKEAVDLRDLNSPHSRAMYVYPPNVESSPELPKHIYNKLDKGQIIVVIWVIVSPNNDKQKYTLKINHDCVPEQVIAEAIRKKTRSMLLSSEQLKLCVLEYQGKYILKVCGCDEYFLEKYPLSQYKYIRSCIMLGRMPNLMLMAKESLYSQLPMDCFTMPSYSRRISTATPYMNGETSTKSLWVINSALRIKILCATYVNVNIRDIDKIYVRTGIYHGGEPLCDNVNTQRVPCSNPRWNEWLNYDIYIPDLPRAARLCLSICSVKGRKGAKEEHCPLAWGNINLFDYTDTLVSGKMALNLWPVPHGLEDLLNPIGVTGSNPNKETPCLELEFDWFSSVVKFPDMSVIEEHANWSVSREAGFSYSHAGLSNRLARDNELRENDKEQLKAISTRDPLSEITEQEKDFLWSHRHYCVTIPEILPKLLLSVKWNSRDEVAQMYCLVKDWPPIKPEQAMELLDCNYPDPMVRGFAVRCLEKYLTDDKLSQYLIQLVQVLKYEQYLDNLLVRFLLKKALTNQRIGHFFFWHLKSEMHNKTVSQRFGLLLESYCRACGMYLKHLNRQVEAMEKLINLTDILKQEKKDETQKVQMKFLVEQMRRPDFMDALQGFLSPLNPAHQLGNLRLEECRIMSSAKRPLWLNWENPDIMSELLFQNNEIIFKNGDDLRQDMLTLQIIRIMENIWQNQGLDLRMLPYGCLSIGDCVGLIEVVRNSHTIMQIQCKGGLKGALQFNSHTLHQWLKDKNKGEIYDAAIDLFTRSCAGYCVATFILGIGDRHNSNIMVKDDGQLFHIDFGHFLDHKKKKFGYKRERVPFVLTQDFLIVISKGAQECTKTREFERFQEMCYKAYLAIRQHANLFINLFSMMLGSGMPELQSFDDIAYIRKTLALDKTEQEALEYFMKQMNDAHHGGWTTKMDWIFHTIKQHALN
# PIK3CG;PIK3CA (human), sequence (P48736 whole entry, looked up): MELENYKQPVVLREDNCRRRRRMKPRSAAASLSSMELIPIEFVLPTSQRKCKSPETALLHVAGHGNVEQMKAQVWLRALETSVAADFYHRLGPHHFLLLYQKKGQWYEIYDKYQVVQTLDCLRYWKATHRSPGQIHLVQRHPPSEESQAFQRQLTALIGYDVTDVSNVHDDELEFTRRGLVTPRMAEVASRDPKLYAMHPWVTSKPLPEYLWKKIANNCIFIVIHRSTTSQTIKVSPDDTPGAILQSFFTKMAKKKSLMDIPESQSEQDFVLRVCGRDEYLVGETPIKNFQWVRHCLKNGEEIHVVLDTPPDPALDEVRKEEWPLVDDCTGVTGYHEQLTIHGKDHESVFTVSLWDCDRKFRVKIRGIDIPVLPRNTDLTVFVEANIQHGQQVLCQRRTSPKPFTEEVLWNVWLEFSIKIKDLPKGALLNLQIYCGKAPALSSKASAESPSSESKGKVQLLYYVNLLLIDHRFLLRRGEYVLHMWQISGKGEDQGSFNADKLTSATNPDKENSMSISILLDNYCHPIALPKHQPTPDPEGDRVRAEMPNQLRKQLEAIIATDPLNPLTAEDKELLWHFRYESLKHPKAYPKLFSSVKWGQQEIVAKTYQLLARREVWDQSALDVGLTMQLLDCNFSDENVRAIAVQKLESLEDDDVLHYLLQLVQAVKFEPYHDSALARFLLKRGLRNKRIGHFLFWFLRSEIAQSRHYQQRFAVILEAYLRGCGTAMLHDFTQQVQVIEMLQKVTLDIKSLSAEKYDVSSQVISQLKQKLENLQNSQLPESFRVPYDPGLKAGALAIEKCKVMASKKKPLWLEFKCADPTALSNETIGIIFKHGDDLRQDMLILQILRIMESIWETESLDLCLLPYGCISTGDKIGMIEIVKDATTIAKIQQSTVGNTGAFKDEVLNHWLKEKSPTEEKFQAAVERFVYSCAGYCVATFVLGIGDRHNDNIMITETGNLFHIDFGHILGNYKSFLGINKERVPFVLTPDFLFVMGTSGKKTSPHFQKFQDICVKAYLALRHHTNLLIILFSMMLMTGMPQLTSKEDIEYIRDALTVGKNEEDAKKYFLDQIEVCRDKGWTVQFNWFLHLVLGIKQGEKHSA
# PIK3CG (human), sequence (P48736 whole entry, looked up): as above
Structure (SMILES),IC50 [1],IC50 [2],IC50 [3] [nM],IC50 [4] [nM],IC50 [5] [nM]
CC(C)Nc1nc(-c2ccc(NC(=O)NCCO)cc2)nc(N2CC3CCC(C2)O3)n1,10000 nM,,,,
CN1CCCN(c2nc(-c3ccc(NC(=O)Nc4cccnc4)cc3)nc(N3CC4CCC(C3)O4)n2)C1,10000 nM,,,,
NCCCNc1nc(-c2ccc(NC(=O)Nc3cccnc3)cc2)nc(N2CC3CCC(C2)O3)n1,10000 nM,,,,
O=C(O)CNC1CCN(c2nc(-c3ccc(NC(=O)Nc4ccncc4)cc3)nc(N3CC4CCC(C3)O4)n2)CC1,10000 nM,,,,
COCCNc1ccc(NC(=O)Nc2ccc(-c3nc(N4C5CCC4COC5)nc(N4C5CCC4COC5)n3)cc2)cc1,7140 nM,1100 nM,,,1.2
CN(C)CCN(C)C(=O)c1ccc(NC(=O)Nc2ccc(-c3nc(C4CCOCC4)nc(N4CCOCC4)n3)cc2)cc1,,0.8 nM,,,
CNC(=O)Nc1ccc(-c2nc(N3CC4CCC(C3)O4)nc(N3CC4CCC(C3)O4)n2)cc1,10000 nM,,,,
O=C(Nc1ccc(NCCO)cc1)Nc1ccc(-c2nc(N3C4CCC3COC4)nc(N3C4CCC3COC4)n2)cc1,8040 nM,1460 nM,,,70
O=C(Nc1ccc(-c2nc(N3C[C@@H]4C[C@H]3CO4)nc(N3C[C@@H]4C[C@H]3CO4)n2)cc1)Nc1ccc(N2CCNCC2)cc1,,,,,100
O=C(Nc1ccc(-c2nc(NCCO)nc(N3CC4CCC(C3)O4)n2)cc1)Nc1cccnc1,10000 nM,,,,
CCN(CC)C(=O)[n+]1ccc(NC(=O)Nc2ccc(-c3nc(N4CCOCC4)nc(N4C5CCC4COC5)n3)cc2)cc1,444 nM and 606 nM,36 nM and 28 nM,,,
O=C(Nc1ccc(C(=O)NCCN2CCCC2)cc1)Nc1ccc(-c2nc(O[C@H]3CCOC3)nc(N3CCOCC3)n2)cc1,,,,27,
O=C(Nc1ccc(-c2nc(OCCN3CCCCC3)nc(N3CC4CCC(C3)O4)n2)cc1)Nc1cccnc1,10000 nM,,,,
Nc1ccc(-c2nc(-c3ccc(NC(=O)Nc4cccnc4)cc3)nc(N3CC4CCC(C3)O4)n2)cc1,,832 nM,,,290
CN1CCN(c2ccc(NC(=O)Nc3ccc(-c4nc(N5C6CCC5COC6)nc(N5[C@H](CO)CC[C@@H]5CO)n4)cc3)cc2)CC1,10000 nM,,,,
CN1CCC(Nc2ccc(NC(=O)Nc3ccc(-c4nc(N5C6CCC5COC6)nc(N5C6CCC5COC6)n4)cc3)cc2)CC1,,6340 nM,,,3
CC(C)Nc1nc(-c2ccc(NC(=O)NC3CC3)cc2)nc(N2CC3CCC(C2)O3)n1,10000 nM,,,,
CN(C)C1CCN(c2ccc(NC(=O)Nc3ccc(-c4nc(N5C6CCC5COC6)nc(N5C6CCC5COC6)n4)cc3)cc2)CC1,,3090 nM,,,1
CN(C)CCN(C)c1ccc(NC(=O)Nc2ccc(-c3nc(N4C5CCC4COC5)nc(N4C5CCC4COC5)n3)cc2)cc1,,6030 nM,,,2.2
O=C(Nc1ccc(-c2nc(N3C4CCC3COC4)nc(N3C4CCC3COC4)n2)cc1)N1CCNCC1,10000 nM,,,,

# Now from value to compound:
IC50 [1],IC50 [2],IC50 [3] [nM],IC50 [4] [nM],IC50 [5] [nM],Structure (SMILES)
378 nM,22 nM,26,106,,C[C@H]1COCCN1c1nc(-c2ccc(NC(=O)Nc3ccc(C(=O)NCCN4CCCC4)cc3)cc2)nc(N2CCOC[C@@H]2C)n1
4000 nM,1850 nM,,,1000,O=C(Nc1ccncc1)Nc1ccc(-c2nc(N3CCC(N4CCOCC4)CC3)nc(N3CC4CCC(C3)O4)n2)cc1
9.5 nM,3.2 nM,,,,CC(C)N1CCN(C(=O)c2ccc(NC(=O)Nc3ccc(-c4nc(C5CCOCC5)nc(N5CCOCC5)n4)cc3)cc2)CC1
36 nM,2 nM,,,,CN(C)CCN(C)C(=O)c1ccc(NC(=O)Nc2ccc(-c3nc(N4CCC4)nc(N4CCOCC4)n3)cc2)cc1
459 nM,124 nM,,,,FC(F)c1nc2ccccc2n1-c1nc(N2CC3CCC(C2)O3)nc(N2CC3CCC(C2)O3)n1
58.5 nM,,43,193,,CC(C)N1CCN(C(=O)c2ccc(NC(=O)Nc3ccc(-c4nc(N5CCCCC5)nc(N5CCOCC5)n4)cc3)cc2)CC1
20.5 nM,3.5 nM,58,253,,CN(C)C1CCN(C(=O)c2ccc(NC(=O)Nc3ccc(-c4nc(-c5ccccc5)nc(N5CCOCC5)n4)cc3)cc2)CC1
23 nM,3 nM,68,31,,O=C(Nc1ccc(C(=O)Cc2ccccn2)cc1)Nc1ccc(-c2nc(N3CCOCC3)nc(N3CCOCC3)n2)cc1
43 nM,24 nM,,,,FC(F)c1nc2ccccc2n1-c1nc(N2CCOCC2)nc(N2CC3CCC(C2)O3)n1
72 nM,12.5 nM,113,522,,Cc1ccc(-c2nc(-c3ccc(NC(=O)Nc4ccc(C(=O)N5CCCC5)cc4)cc3)nc(N3CCOCC3)n2)cc1
57.5 nM,3.5 nM,,,,CN(C)CCNC(=O)c1ccc(NC(=O)Nc2ccc(-c3nc(N4CCCCC4)nc(N4CCOCC4)n3)cc2)cc1
7030 nM,521 nM,,,50,CC(C)Nc1nc(-c2ccc(NC(=O)Nc3ccc(N4CCN(C)CC4)nc3)cc2)nc(N2CC3CCC(C2)O3)n1
658 nM,462 nM,,,,Cc1ccc(-c2nc(-c3ccc(NC(=O)Nc4cccc(C(=O)N5CCC(N(C)C)CC5)c4)cc3)nc(N3CCOCC3)n2)cc1
2430 nM,586 nM,,,,CN(C)CCOc1ccc(NC(=O)Nc2ccc(-c3nc(N4CCSCC4)nc(N4C5CCC4COC5)n3)cc2)cc1
